In patent publication US12269902B2, “Peptide compounds and peptide conjugates for the treatment of cancer through receptor-mediated chemotherapy” (TRANSFERT PLUS, S.E.C., priority 2015, dated 2025):
Blank lines part the entries; values can stand above or below the compound they belong to. Non-standard residues stand in square brackets, D forms with d. Residues, ends and D or L forms follow the SMILES beside them. *: point of attachment. X1 = CC(=O)O[C@@]12CO[C@@H]1C[C@H](O)[C@@]1(C)C(=O)[C@H](O)C3=C(C)[C@@H](OC(=O)[C@H](OC(=O)CCC(=O)*)[C@@H](NC(=O)OC(C)(C)C)c4ccccc4)C[C@@](O)([C@@H](OC(=O)c4ccccc4)[C@H]21)C3(C)C; Nle = CCCC[C@H](N)C(=O)O

Assays:
[1] = system: ES-2 ovarian cancer cells; assay: [3H]-Thymidine incorporation cell proliferation assay, ES-2; format: cell-based; details: ES-2 (Ovary)
Procedure: (§1) The effect of the Docetaxel-Katana peptide conjugate on various cell line proliferations was evaluated and compared to unconjugated Docetaxel (Table 4). IC50 values obtained for the Docetaxel-Katana peptide conjugate were very similar to those of Docetaxel in the cancer cells tested.
(§2) The phytochemical Curcumin, unconjugated and conjugated, was also tested on cancer cell proliferation (FIG. 28). Breast cancer cells (MDA-MB231) were incubated with increasing concentrations of KBC106 or curcumin. After 72 hrs, thymidine incorporation assay was performed to assess the anti-proliferative properties of both molecules. IC50 values were extracted from the anti-proliferative curves. […] Proliferation assay was also performed using different types of cancer cells (ovarian, breast, skin and colorectal cancer cells). IC50 values were calculated from the anti-proliferation curves. In all cases, the Curcumin conjugate (KBC106) had stronger anti-proliferative activity (9-100 fold) than unconjugated Curcumin, as shown in Table 6 below.
(§3) Cancer cells were cultured in 96-well white plates (Perkin Elmer). They were synchronized for 24 hours in serum-deprived medium. After incubation of cells with unconjugated drugs (docetaxel, cabazitaxel, doxorubicin) or with drug-Katana peptide conjugates for 2 or 3 days, all media was aspirated and cells were pulse-labeled for 4 hours at 37° C./[…]/5% CO2 with media containing 2.5 μCi/mL [methyl-3H] thymidine (Perkin Elmer). Cells were washed, fixed, and dried before addition of scintillation fluid (Microscint 0, Perkin Elmer). After 24 hours, cell-associated tritium was quantified by counting on a plate reader (TopCount, Perkin Elmer). Incorporated [3H] thymidine was plotted for each drug concentration.

[2] = system: MDA-MB-231 breast cancer cells; assay: cells; details: Homo sapiens
Procedure: Breast cancer cells (MDA-MB231) were incubated with increasing concentrations of KBC106 or curcumin. After 72 hrs, thymidine incorporation assay was performed to assess the anti-proliferative properties of both molecules. IC50 values were extracted from the anti-proliferative curves.
as §2, with “curves.” for “curves. In all cases, the Curcumin conjugate (KBC106) had stronger anti-proliferative activity (9-100 fold) than unconjugated Curcumin, as shown in Table 6 below.”
as §3

[3] = system: SK-MEL-28 skin cancer cells; assay: [3H]-Thymidine incorporation cell proliferation assay, SK-MEL-28; format: cell-based; details: Homo sapiens
Procedure: as §1, §2, §3

[4] = system: A-375 skin cancer cells; assay: [3H]-Thymidine incorporation cell proliferation assay, A-375; format: cell-based; details: Homo sapiens
Procedure: as §1, §2, §3

[5] = system: HCC-1569 breast cancer cells; assay: cells; format: cell-based; details: Homo sapiens, HCC1569; HCC-1569 (HER2+; Herceptin resistant); Table 6
Procedure: as §2, §3

[6] = system: HCC-1954 breast cancer cells; assay: cells; format: cell-based; details: Homo sapiens, HCC1954; HCC-1954 (HER2+; Lapatinib resistant); Table 6
Procedure: as §2, §3

[7] = system: HT-29 colorectal cancer cells; assay: cells; format: cell-based; details: Homo sapiens, Table 6
Procedure: as §2, §3

[8] = system: cancer cells; assay: Apoptosis by fluorescence microscopy (alpha-tubulin, DAPI); format: cell-based; details: fluorescent microscopy
Procedure: In FIG. 30, it was further evaluated whether the Curcumin conjugate (KBC106) induces cancer cell apoptosis. Cancer cells were incubated with KBC106 and curcumin. First column, uptake for both molecules can be monitored by fluorescent microscopy. Higher accumulation of fluorescence was detected for KBC1006 indicating a better cell internalization for the conjugate. Curcumin accumulation was barely visible in these cancer cells. […] In the third column, cell nucleus was labelled with the fluorescent dye DAPI.

[9] = target: P-gp (MDR1) (Homo sapiens, UniProt P08183); assay: Drug accumulation in MDCK-MDR1 cells with or without Cyclosporin A; details: 50 nM, 1 hr, 37° C., CsA 10 μM
Chain of P-gp (MDR1) (P08183 whole entry): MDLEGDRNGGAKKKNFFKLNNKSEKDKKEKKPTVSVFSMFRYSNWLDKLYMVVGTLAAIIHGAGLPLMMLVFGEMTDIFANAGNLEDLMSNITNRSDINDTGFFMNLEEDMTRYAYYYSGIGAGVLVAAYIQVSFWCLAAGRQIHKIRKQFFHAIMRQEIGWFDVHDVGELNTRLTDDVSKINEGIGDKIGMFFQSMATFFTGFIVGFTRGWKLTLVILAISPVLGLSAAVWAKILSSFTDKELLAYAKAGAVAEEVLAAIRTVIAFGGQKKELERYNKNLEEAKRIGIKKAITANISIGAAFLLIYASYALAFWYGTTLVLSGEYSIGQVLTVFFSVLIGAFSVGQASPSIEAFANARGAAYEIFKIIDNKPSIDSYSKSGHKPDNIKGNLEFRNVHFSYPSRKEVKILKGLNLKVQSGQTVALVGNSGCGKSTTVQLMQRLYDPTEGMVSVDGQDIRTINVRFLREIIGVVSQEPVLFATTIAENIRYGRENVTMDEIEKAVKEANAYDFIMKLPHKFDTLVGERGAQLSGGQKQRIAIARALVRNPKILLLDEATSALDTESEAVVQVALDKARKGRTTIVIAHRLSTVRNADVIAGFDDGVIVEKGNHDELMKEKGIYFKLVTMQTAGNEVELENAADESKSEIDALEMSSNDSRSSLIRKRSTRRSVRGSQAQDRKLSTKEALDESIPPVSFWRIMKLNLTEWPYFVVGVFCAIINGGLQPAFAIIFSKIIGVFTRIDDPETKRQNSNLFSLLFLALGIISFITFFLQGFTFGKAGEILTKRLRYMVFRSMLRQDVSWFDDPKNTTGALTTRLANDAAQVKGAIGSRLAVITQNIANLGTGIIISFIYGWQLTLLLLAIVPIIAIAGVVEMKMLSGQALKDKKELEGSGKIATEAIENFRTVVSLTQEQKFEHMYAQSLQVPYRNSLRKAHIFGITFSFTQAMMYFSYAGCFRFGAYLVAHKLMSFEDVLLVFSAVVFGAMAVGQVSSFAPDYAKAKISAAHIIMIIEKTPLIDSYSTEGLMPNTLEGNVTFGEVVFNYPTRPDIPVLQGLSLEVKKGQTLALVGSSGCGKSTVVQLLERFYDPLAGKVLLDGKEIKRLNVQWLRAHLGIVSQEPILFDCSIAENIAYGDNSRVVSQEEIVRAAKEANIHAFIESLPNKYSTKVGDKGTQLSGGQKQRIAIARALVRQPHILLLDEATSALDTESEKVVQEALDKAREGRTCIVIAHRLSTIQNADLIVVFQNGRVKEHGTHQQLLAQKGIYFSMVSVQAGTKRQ
Procedure: 6A. […] 6B. MDCK-MDR1 cells were incubated with 50 nM of either [^14C]-Doxorubicin or [^125I]-Katana peptide-Doxorubicin conjugate (KBB106) for 1 hr at 37° C. in the presence or absence of CsA (10 μM). After the incubation, cells were washed and radioactivity accumulated in cells was quantified. The results were expressed in terms of uptake fmol/mg of protein.
In order to determine whether the anticancer drug-Katana-peptide conjugates could also be P-gp substrates, MDCK-transfected cells with human MDR1 were used (MDCK-MDR1).
Cells were washed three times with PBS and preincubated for 30 min at 37° C. in culture medium without serum with or without the P-gp inhibitor Cyclosporin A (10 μM). Radiolabelled molecules (50 nM) were then added for 60 min. The cells were rapidly washed three times with ice-cold PBS and then lysed in 500 µL of 0.1 M NaOH. The amount of radiolabelled molecules retained in the cells was counted by β-scintillation counting (Packard model 1900 TR). An aliquot of cell lysate was used in parallel to determine cellular protein concentration.

[10] = Tissue distribution of radiolabeled compounds in mice; details: iv bolus, equivalent dose of Docetaxel (Docetaxel 2.2, KBA105 5 mg/kg)
Procedure: CD-1 mice were injected with the radiolabeled conjugate at 5 mg/kg via iv bolus injections (21A) or […] of radiolabeled Docetaxel (21B). At the indicated times (1 h, 6 h, 24 h) mice were sacrificed and perfused with saline for 8 min. Tissues were then collected and radioactivity was measured. Results are expressed in terms of ng/g of tissue.
At the indicated times (1, 6 and 24 hours), whole body perfusion was performed for 8 min with saline at a flow rate of 8 ml/min after […] hours iv bolus injections.
After radiolabeling free iodine was remove. Mice were injected with Docetaxel-[^125I]-Katana peptide conjugate at 5 mg/kg. Plasma was collected at the indicated times. After 1, 2 and 24 hours some mice were perfused with saline, sacrificed and tissues were collected. Radioactivity in the plasma and tissues were measured in a radioactivity counter and results were calculated and expressed in terms of […] for the plasma or ng/g of tissues.

[11] = system: SKOV3 cancer cells; assay: SKOV3 luciferase subcutaneous xenograft tumour model (Docetaxel, KBA-105); details: mice, Docetaxel 10 mg/kg/week, 3 treatments
Procedure: Mice were implanted in the flank with SKOV3 cancer cells. Tumor growth was monitored by luminescence using the Near Infrared imaging system from Carestream.
Results are expressed in terms of luminescence intensity as a function of post-treatment days.
To further evaluate the in vivo efficacy of the Katana-drug conjugate, SKOV3 cancer cells expressing luciferase were implanted in the mouse flank. […] Tumour imaging was performed on different days by injecting the luciferase substrate luciferin and by using the Xtreme imaging system from Carestream.
Luminescence was then quantified and plotted as a function of days after implantation (FIG. 23).
SKOV3 cancer cells (2.5×10^6 cells) expressing luciferase were implanted in the right flank of mice. Tumour growth was monitored using near infrared (NiR) imaging system from Carestream by injecting the luciferase substrate luciferin. […] Luminescence associated with tumour growth of SKOV3/Luc cancer cells was quantified as a function of post-treatment days with the instrument software.

[12] = system: MDA-MB231 breast cancer cells; assay: MDA-MB231 luciferase breast subcutaneous tumors (Docetaxel, KBA106); format: in vivo, mice
Procedure: 27A. Mice were implanted in the flank with MDA-MB231 breast cancer cells expressing luciferase. Tumor growth by luminescence was visualized using an in vivo imaging system from Carestream. Mice were treated with vehicle, Docetaxel (15 mg/kg/week) or KBA106 (50 mg/kg/week). Initial luminescence intensity was subtracted. 27B. […] No value was available (N/A) for the mice treated with the vehicle since all mice were then sacrificed because the size of their tumors reached the endpoint limit. 27C. Tumor luminescence results were expressed in terms of percentage of progression on D74 post-treatment compared to initial tumor luminescence. In the Docetaxel group, the tumor luminescence increased by 100% whereas in the KBA106 treated group the luminescence decreased by 100%.
Residual tumor burden was assessed in Docetaxel and Docetaxel conjugate treated mice (FIG. 27). Mice were implanted in the flank with MDA-MB231 breast cancer cells expressing luciferase. Tumor growth by luminescence was visualized using an in vivo imaging system from Carestream. Mice were treated with vehicle, Docetaxel (15 mg/kg/week) or KBA106 (50 mg/kg/week).

[13] = free Docetaxel; Assessment report for Docetaxel Teva, European Medicines Agency; cited from earlier work
[14] = system: ovarian (SKOV3 and ES-2) cancer cells; assay: Cell migration assay by xCELLigence biosensor system, ovarian cancer cells; format: cell-based; details: 2 hours incubation, 2 μM
Procedure: 15A. Cells were incubated for 2 hrs with increasing concentration of Doxorubicin or conjugated Doxorubicin (KBB106) and cell migration was performed. 15B. […] 15C. Progranulin (PGR), a sortilin ligand, also reversed the effect of the Doxorubicin conjugate (KBB106) on ovarian cancer cell (ES-2) migration.
This second cellular assay was also used to screen the different Katana-drug conjugates (FIG. 15). […] However, as shown in FIGS. 15B and 15C, when the cancer cells were incubated with conjugated Doxorubicin (KBB106) in the presence of a sortilin ligand (Neurotensin, Katana peptide or progranulin), the migratory effect of the Doxorubicin conjugate was reversed.
Experiments were carried out using the Real-Time Cell Analyser (RTCA) Dual-Plate (DP) Instrument, the xCELLigence system (Roche Diagnostics, QC). This system was used according to the instructions of the supplier. Then, cells (25 000 cells/well) were seeded in serum-free medium onto a CIM-Plates 16 (Roche diagnostics). […] After 30 min of adhesion, cell migration was monitored every 5 min for 8 h. The impedance value was measured by the RTCA DP Instrument and was expressed as an arbitrary unit called the Cell Index which reflecting the amount of migration-active cells. […]

IC50 ([1]; Table 6): 14.4 µM
IC50 ([2]; MDA-MB-231, 72 h): 13.4 µM
IC50 ([3]; SK-MEL-28, Table 6): 12.5 µM
IC50 ([4]; A-375, Table 6): 20.9 µM
IC50 [5]: 14.8 µM
IC50 [6]: 12 µM
IC50 [7]: 51.3 µM
SMILES: COc1cc(/C=C/C(=O)CC(=O)/C=C/c2ccc(O)c(OC)c2)ccc1O [Curcumin, curcumin]
induction of apoptosis (nucleus fragmentation, DAPI) [8]: does not

IC50 ([1]; Table 4, 2 or 3 days): 0.0013 µM
IC50 ([2]; MDA-MB-231): 0.00068 µM
IC50 ([3]; SK-MEL-28 (Skin), Table 4, 2 or 3 days): 0.00069 µM
IC50 ([4]; A-375 (Skin), Table 4, 2 or 3 days): 0.00092 µM
increase of accumulation in the presence of cyclosporin A [9]: 2 fold
Area under the curve (AUC1-24) ([10]; Brain): 34 ng·h/mL
Area under the curve (AUC1-24) ([10]; Heart): 656 ng·h/mL
Area under the curve (AUC1-24) ([10]; Kidney): 1072 ng·h/mL
Area under the curve (AUC1-24) ([10]; Liver): 652 ng·h/mL
Area under the curve (AUC1-24) ([10]; Lung): 614 ng·h/mL
Area under the curve (AUC1-24) ([10]; Mammary): 823 ng·h/mL
Area under the curve (AUC1-24) ([10]; Ovary): 1523 ng·h/mL
Area under the curve (AUC1-24) ([10]; Spleen): 457 ng·h/mL
SMILES: CC(=O)O[C@@]12CO[C@@H]1C[C@H](O)[C@@]1(C)C(=O)[C@H](O)C3=C(C)[C@@H](OC(=O)[C@H](O)[C@@H](NC(=O)OC(C)(C)C)c4ccccc4)C[C@@](O)([C@@H](OC(=O)c4ccccc4)[C@H]21)C3(C)C [Docetaxel, docetaxel, reference compound]
body weight loss [11]: ~20%
tumor luminescence increase compared to initial tumor luminescence ([12]; D74 post-treatment, Docetaxel 15 mg/kg/week): 100%
plasma half-life reported in the literature [13]: 1 h

SMILES: CCCC[C@H](NC(=O)[C@H](CC(N)=O)NC(=O)[C@H](CCCNC(=N)N)NC(=O)[C@@H](NC(=O)CNC(=O)[C@H](C)NC(=O)[C@H](CCCCNC(=O)CCC(=O)O[C@@H](C(=O)O[C@H]1C[C@@]2(O)[C@@H](OC(=O)c3ccccc3)[C@@H]3[C@]4(OC(C)=O)CO[C@@H]4C[C@H](O)[C@@]3(C)C(=O)[C@H](O)C(=C1C)C2(C)C)[C@@H](NC(=O)OC(C)(C)C)c1ccccc1)NC(=O)[C@H](C)NC(=O)[C@H](CCCNC(=N)N)NC(=O)[C@@H](NC(=O)CNC(C)=O)C(C)C)C(C)C)C(=O)N[C@@H](Cc1ccccc1)C(=O)N[C@@H](CCCCNC(=O)CCC(=O)O[C@@H](C(=O)O[C@H]1C[C@@]2(O)[C@@H](OC(=O)c3ccccc3)[C@@H]3[C@]4(OC(C)=O)CO[C@@H]4C[C@H](O)[C@@]3(C)C(=O)[C@H](O)C(=C1C)C2(C)C)[C@@H](NC(=O)OC(C)(C)C)c1ccccc1)C(=O)N[C@@H](CO)C(=O)N[C@@H](CCC(=O)O)C(=O)N[C@@H](CO)C(=O)N[C@@H](Cc1ccc(O)cc1)C(=O)O [KBA-106, Acetyl-GVRAK(docetaxel)AGVRN(Nle)FK(docetaxel)SESY] (Ac-GVRAK(X1)AGVRN[Nle]FK(X1)SESY-OH; C-terminus assumed)
effect on cell migration [14]: almost completely abolished the cellular capacity of these cells to migrate
tumor luminescence decrease compared to initial tumor luminescence ([12]; D74 post-treatment, KBA106 50 mg/kg/week): 100%
residual tumor burden (remaining luminescence) ([12]; Day 74 post-treatment, KBA106 50 mg/kg/week): no luminescence was detectable
